Patent US8100830B2, “Non-therapeutic methods of evaluating skin neurosensitivity, kit and use of a kit for implementing the method” (Societe l'Oreal S.A., priority 2002, dated 2012)

Experiments:
[1] = assay type: physicochemical
Text: When the peripheral nervous system stimulant is capsaicin, a preferred vehicle is an aqueous-alcoholic solution, advantageously an aqueous-ethanolic solution, containing from 1% to 50% of ethanol in water, advantageously from 5% to 20%, preferably from 8% to 15% and more preferably 10%.

[2] = test system: nasogenial sulci of healthy subjects; test: Example 1: detection threshold test, increasing capsaicin concentrations C1-C4 applied to the nasogenial sulci against vehicle; assay type: in vivo, human; settings: 13 healthy subjects, 3.3×10^−5% to 1×10^−3% in ethanol 10%, water 90%
Procedure: Capsaicin was tested in the form of aqueous-alcoholic solutions (ethanol 10%, water 90%).
Experimental Design: • Randomized, single-blind study, controlled • 13 healthy subjects of both sexes • 4 capsaicin solutions tested: 3.3×10^−5% (C1), 1×10^−4% (C2), 3.3×10^−4% (C3), 1×10^−3% (C4)
1st step: Simultaneous application to the nasogenial sulci on each side of the face of the vehicle, using impregnated cotton buds, in order to acclimatize the volunteer to the sensations induced by application of the vehicle. Waiting time of 3 minutes.
2nd step: Application of the vehicle to one side and of the capsaicin solution at concentration C1 on the other. After 3 minutes, ask whether the subject has perceived a difference between the 2 sides. If the subject describes an unattractive sensation on the side which has received the capsaicin, stop the test and allocate C1 as the detection threshold. If not, go immediately to step 3.
3rd step: Application of solution C2 to the side which has received the vehicle in […] and of the vehicle to the other side. After 3 minutes, ask whether the subject has perceived a difference between the 2 sides. If the subject describes a particular sensation on the side which has received the capsaicin, stop the test and allocate C2 as the detection threshold. If not, go immediately to step 4. […]

[3] = test system: skin of a non-selective population of 150 women; test: Example 7: skin neurosensitivity threshold of 150 women with the kit of Example 3 (capsaicin solutions C1-C5); assay type: in vivo, human
Procedure: This kit allows approximately 50 instances of use and comprises in a box (B) the following elements: • 1. a holder P allowing […] bottles as described in section 2 of this list to be held upright; • 2. 5 bottles F3 of 20 ml containing respectively 15 ml of solutions C1-C5 (3.16×10^−5% (C1), 1×10^−4% (C2), 3.16×10^−4% (C3), 1×10^−3% (C4) and 3.16×10^−3% (C5)) and a bottle F3T containing 15 ml of a 10% aqueous-alcoholic solution T; these bottles are shown in FIG. 2 and correspond to those defined in section 4 of Example 2; • 3. 80 standard cotton buds CT; • 4. a usage note containing the following elements: • a) use instructions for the implementation of the test, reproducing the protocol of Example 1, using the cotton buds and the bottles F3C1-5 and F3T; the bottles must be stored at 4° C. between two instances of use and discarded after one week of use. • b) a calibration system (atlas) allowing interpretation of the results (C1: excessively sensitive skin; C2: highly sensitive skin; C3: moderately sensitive skin; C4: relatively insensitive skin; C5: virtually insensitive skin; C5 not detected: completely insensitive skin).
Use of the Kit of Example 3 to Determine the Skin Neurosensitivity Threshold of 150 Women:
Study performed in a single-blind procedure on a non-selective population of 150 women aged from 18 to 60 years living in Paris or the surrounding region.
It is interesting to note that the sensations reported at the level of the detection threshold (characterized by a sensation detected on the side where the capsaicin was applied, lasting for at least 30 seconds) are highly varied (presence, pins and needles, stinging, hotness, etc.)

[4] = 109 women who detected a concentration, intensity scale 1 to 5

Question: With `COc1cc(CNC(=O)CCCC/C=C/C(C)C)ccc1O` [capsaicin] as the compound, how does the “stability over time of aqueous-ethanolic solutions” value [1] read?
Answer: particularly stable over time

Question: And the “tolerance of the test (pain) as evaluated by the subjects” value [2]?
Answer: absolutely painless for all of the 13 subjects

Question: What about the delay before appearance of the sensation, maximum ([3]; 74 of the 150 subjects) of the same compound?
Answer: 120 s

Question: And the delay before appearance of the sensation, minimum ([3]; 74 of the 150 subjects)?
Answer: 60 s

Question: What about the “delay before appearance of the sensation, mean” value ([3]; 74 of the 150 subjects, at the detection threshold) of the same compound?
Answer: 79.9 s

Question: What about the “sensations at level 2 (slight but perceptible) at the detected concentration” value [3, 4] of the same compound?
Answer: 95%

Question: And the “sensations at level 3 (moderately clearly perceptible) at the detected concentration” value [3, 4]?
Answer: 5%

Question: What about the “sensations of level 4 (substantial) or painful at the detected concentration” value [3, 4] of the same compound?
Answer: No sensation of level 4 (“substantial”) or (“painful”) was reported

Question: What about the “subjects who detected C1, C2 or C3 (sensitive to highly sensitive population)” value ([3]; 150 women, C1 3.16×10^−5%, C2 1×10^−4%, C3 3.16×10^−4%) of the same compound?
Answer: 56%

Question: What about the “subjects who detected C4 or C5 or did not detect any concentration (virtually or completely insensitive population)” value ([3]; 150 women, C4 1×10^−3%, C5 3.16×10^−3%) of the same compound?
Answer: 44%

Question: And the “women who detected a concentration” value ([3]; of 150 women, C1-C5)?
Answer: 109
